Results taken from patent US20230338510A1, “NOVEL C[…] EPITOPE P[…] AND USE THEREOF” (SHANGHAI INSTITUTE OF MATERIA MEDICA, CHINESE ACADEMY OF …, priority 2020, published 2023).

Assays:
RBD = type: in vivo; conditions: cynomolgus monkeys, subcutaneous immunization with adjuvant, 14 days after the second immunization; FIG. 8
binding of RBD to ACE2 = assay: competitive ELISA: ability of antiserum to block the binding of RBD and ACE2; type: in vivo, cynomolgus monkeys
human ACE2 = human ACE2 (Homo sapiens, UniProt Q9BYF1); assay: in vitro binding of biotin-labeled LP2 to ACE2 by ELISA; conditions: biotin-labeled polypeptide 1, 0.5 and 0.25 µg/mL, ACE2-coated plate; FIG. 10
Experimental: In this example, LP2 was labeled with biotin, and its binding ability with human ACE2 was detected by ELISA.
The specific determination method is as follows: the ELISA plate was coated overnight with 10ug/mL ACE2 and blocked, then biotin-labeled polypeptides of different concentrations (1, 0.5 and 0.25 µg/mL) were added. After incubated at 37° C. for 1.5 hours, HRP-Streptavidin A diluted in 1:5000 was added, and incubated at 37° C. for 1 hour. The plate was washed, then TMB was added for color development, and the plate was read at 450 nm wavelength after termination.

human ACE2, sequence (Q9BYF1 18-805): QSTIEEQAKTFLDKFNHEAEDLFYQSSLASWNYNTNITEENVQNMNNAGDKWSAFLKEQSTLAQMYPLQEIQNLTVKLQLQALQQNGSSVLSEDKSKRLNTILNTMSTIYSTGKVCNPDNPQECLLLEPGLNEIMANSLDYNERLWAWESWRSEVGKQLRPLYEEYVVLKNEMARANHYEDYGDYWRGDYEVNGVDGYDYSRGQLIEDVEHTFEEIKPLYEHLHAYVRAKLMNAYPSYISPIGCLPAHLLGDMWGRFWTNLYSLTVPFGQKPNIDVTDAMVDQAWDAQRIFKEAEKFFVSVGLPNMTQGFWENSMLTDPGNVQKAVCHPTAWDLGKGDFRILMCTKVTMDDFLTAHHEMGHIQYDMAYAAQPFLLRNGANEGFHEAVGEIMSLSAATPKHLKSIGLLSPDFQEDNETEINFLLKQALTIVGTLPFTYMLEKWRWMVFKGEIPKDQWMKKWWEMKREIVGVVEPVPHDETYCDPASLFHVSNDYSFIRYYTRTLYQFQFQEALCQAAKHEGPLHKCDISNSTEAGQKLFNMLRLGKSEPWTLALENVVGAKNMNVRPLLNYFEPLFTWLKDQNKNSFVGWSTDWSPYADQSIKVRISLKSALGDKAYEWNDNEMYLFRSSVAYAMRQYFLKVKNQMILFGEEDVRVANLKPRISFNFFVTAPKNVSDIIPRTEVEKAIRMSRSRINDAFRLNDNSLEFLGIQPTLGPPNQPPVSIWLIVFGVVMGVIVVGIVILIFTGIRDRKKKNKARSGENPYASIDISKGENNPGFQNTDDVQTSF

## AKFVAAWTLKAAAGGGGYGFQPTNGVGYQPGGGGNYLYRLFRKSNLKPF [LP2]
RBD
  titer of antibodies against RBD: higher titer of antibodies against RBD was produced
Binding of RBD to ACE2; antiserum at 8-64 times of dilution
  blocking effect of antiserum on the binding of RBD to ACE2: significant blocking effect
Binding of RBD to ACE2; antiserum at 8 times of dilution
  inhibition rate: more than 60%
Binding of RBD to ACE2; antiserum at 16 times of dilution
  inhibition rate: more than 40%
Human ACE2
  binding ability with ACE2: strong binding ability
